This experiment has as its target T1, Alpha-fucosidase-like protein (Bacteroides thetaiotaomicron (strain ATCC 29148 / DSM 2079 / JCM 5827 / CCUG 10774 / NCTC 10582 / VPI-5482 / E50), UniProt Q8ABG8).
T1 sequence (Q8ABG8 whole entry): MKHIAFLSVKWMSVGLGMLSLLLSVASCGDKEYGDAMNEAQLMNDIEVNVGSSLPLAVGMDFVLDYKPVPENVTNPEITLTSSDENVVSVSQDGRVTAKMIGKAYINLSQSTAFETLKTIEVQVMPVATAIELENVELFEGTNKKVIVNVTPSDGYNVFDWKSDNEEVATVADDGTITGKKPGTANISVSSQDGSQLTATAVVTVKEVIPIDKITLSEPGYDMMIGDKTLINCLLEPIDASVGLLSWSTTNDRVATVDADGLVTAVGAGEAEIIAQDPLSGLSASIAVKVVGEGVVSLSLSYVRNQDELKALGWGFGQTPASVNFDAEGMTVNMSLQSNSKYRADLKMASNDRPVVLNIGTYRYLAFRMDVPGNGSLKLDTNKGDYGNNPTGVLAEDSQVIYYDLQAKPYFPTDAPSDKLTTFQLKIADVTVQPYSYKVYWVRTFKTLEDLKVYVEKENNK
Put plainly: Enzyme Assay. Conditions: 37 °C. The protocol:
The kinetic studies involving a spectrophotometric product were conducted by monitoring the change in UV/visible absorbance with a Cintra 10 spectrophotometer.

Regarding `C[C@@H]1NC[C@@H](O)[C@H](O)[C@@H]1O`, the Kd – broadly, a measure of binding affinity in units of concentration – is, setting by setting: (pH 6) 14.8 nM; (pH 6.5) 27 nM; (pH 8.5) 372 nM.

Turning to `CC1NC(CNC(=O)c2cccc3c2C(=O)c2ccccc2-3)C(O)C(O)C1O` (stereo not given) [Fucosidase Inhibitor, 4], the Kd (pH 6) was 46.6 nM and binding (pH 8.5) was put at a Kd of 157 nM.

The values are drawn from BindingDB's records for doi:10.1002/cbic.201000339 (University of York, 2010).
